Key:
[1] = system: Eotaxin-3 (CCL26) release in human whole blood stimulated with IL-4; test: Human whole blood eotaxin-3 assay (IL-4 stimulated eotaxin-3 release); format: cell-based; conditions: Homo sapiens, 48 h, human whole blood stimulated with recombinant human IL-4, 48 h, geometric mean; for EC50: inhibition of eotaxin-3 release, given for test compounds with >80% Emax
Summary of the method: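 Lithium-heparin human whole blood was preincubated with compound (4-fold serial dilution, 0.5% DMSO final) for 2 h at 37° C, then stimulated with recombinant human IL-4 at […] final for 48 h. Eotaxin-3 (CCL26) in the supernatant was measured by MSD immunoassay.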

[2] = target: T1, Human STAT6 (truncated, aa122-658, with N-terminal His-tag) (Homo sapiens, UniProt P42226); test: Surface plasmon resonance (SPR) assay, binding to human STAT6; conditions: Biacore 8K, 25° C, immobilized human STAT6 on CM5 chip, multi-cycle kinetics; geometric mean
T1 construct: Human STAT6 (truncated, aa122-658, with N-terminal His-tag, expressed in insect cells); His-tag (N); made in house; host or cells: insect cells
T1 sequence (P42226 122-658): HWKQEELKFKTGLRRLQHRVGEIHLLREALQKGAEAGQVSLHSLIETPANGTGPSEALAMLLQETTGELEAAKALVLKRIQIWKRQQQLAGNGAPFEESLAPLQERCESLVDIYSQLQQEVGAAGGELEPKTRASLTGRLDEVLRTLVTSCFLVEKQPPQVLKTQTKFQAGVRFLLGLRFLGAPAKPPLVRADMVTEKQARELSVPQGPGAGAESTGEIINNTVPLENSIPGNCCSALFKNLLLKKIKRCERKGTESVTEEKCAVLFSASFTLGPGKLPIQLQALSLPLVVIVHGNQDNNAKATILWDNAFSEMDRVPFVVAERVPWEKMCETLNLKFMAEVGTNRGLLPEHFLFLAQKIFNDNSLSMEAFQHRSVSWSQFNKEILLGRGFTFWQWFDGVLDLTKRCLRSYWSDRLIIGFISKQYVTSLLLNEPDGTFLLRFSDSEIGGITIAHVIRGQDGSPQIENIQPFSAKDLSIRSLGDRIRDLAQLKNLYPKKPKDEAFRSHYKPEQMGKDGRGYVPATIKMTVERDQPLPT
Summary of the method: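 Truncated STAT6 (aa122-658, N-His, insect-cell expressed) was amine-coupled to a CM5 chip, and compounds were run as multi-cycle kinetics at 25 °C in PBS-P+ with 2% DMSO (60 s contact, up to 300 s dissociation). KD came from steady-state isotherms at a late report point, fitted with free and with fixed theoretical Rmax (1:1).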

EC50 [1] | Kd [2] | Compound | Emax ([1]; given for test compounds with <80% Emax)
957 nM | 134 nM | CNc1ccn(-c2ccnc3c2cc(CN2CCC(c4ccc(C(=O)N(C)C)cc4)CC2=O)n3C)c(=O)c1 (centres unmarked) [Example 1f8, N,N-Dimethyl-4-[1-[[1-methyl-4-[4-(methylamino)-2-oxo-1-pyridyl]pyrrolo[2,3-b]pyridin-2-yl]methyl]-2-oxo-4-piperidyl]benzamide] | –
74.7 nM | 16.6 nM | CNc1ccn(-c2ccnc3c2cc(CN2CCN(c4ccc(C(=O)N(C)C)cc4C)CC2)n3C)c(=O)c1 [Example 1m6, N,N,3-Trimethyl-4-(4-((1-methyl-4-(4-(methylamino)-2-oxopyridin-1 (2H)-yl)-1H-pyrrolo[2,3-b]pyridin-2-yl)methyl)piperazin-1-yl)benzamide] | –
15.6 nM | 8.66 nM | CNc1ccn(-c2ccnc3c2cc(CN2CC=C(c4c(C)cc(C(=O)N(C)C)cc4C)CC2)n3C)c(=O)c1 [Example 1m12, N,N,3,5-Tetramethyl-4-(1-((1-methyl-4-(4-(methylamino)-2-oxopyridin-1 (2H)-yl)-1H-pyrrolo[2,3-b]pyridin-2-yl)methyl)-1,2,3,6-tetrahydropyridin-4-yl)benzamide] | –
– | 35 nM | CNc1ccn(-c2ccnc3c2cc(CN2CC=C(c4ccc(C(=O)N(C)C)cc4)CC2)n3C)c(=O)c1 [Example 1m35, N,N-Dimethyl-4-(1-((1-methyl-4-(4-(methylamino)-2-oxopyridin-1 (2H)-yl)-1H-pyrrolo[2,3-b]pyridin-2-yl)methyl)-1,2,3,6-tetrahydropyridin-4-yl)benzamide] | 40 to 50%

Continued, molecule first:

Compound | EC50 [1] | Kd [2] | Emax ([1]; given for test compounds with <80% Emax)
CN(C)C(=O)c1ccc(C2CCN(Cc3cc4c(-n5ccc6[nH]ncc6c5=O)ccnc4n3C)CC2)cc1 [Example 1j27, N,N-Dimethyl-4-[1-[[1-methyl-4-(4-oxo-1H-pyrazolo[4,3-c]pyridin-5-yl)pyrrolo[2,3-b]pyridin-2-yl]methyl]-4-piperidyl]benzamide] | 44.7 nM | 9.79 nM | –
CNc1ccn(-c2ccnc3c2cc(CN2CC=C(c4ccc(C(=O)N(C)C)cc4C)CC2)n3C)c(=O)c1 [Example 1m9, N,N,3-Trimethyl-4-(1-((1-methyl-4-(4-(methylamino)-2-oxopyridin-1 (2H)-yl)-1H-pyrrolo[2,3-b]pyridin-2-yl)methyl)-1,2,3,6-tetrahydropyridin-4-yl)benzamide] | 32.1 nM | 11.8 nM | –
[2H]C([2H])([2H])N(C(=O)c1ccc(C2=CCN(Cc3cc4c(-n5ccc(NC)cc5=O)ccnc4n3C)CC2)c(C)c1)C([2H])([2H])[2H] [Example 1m10, 3-Methyl-N,N-bis(methyl-d3)-4-(1-((1-methyl-4-(4-(methylamino)-2-oxopyridin-1 (2H)-yl)-1H-pyrrolo[2,3-b]pyridin-2-yl)methyl)-1,2,3,6-tetrahydropyridin-4-yl)benzamide] | 37.4 nM | 9.57 nM | –
CNc1ccn(-c2ccnc3c2cc(CN2CCN(c4ccc(C(=O)N(C)C)cc4C)C[C@@H]2C)n3C)c(=O)c1 [Example 1m18, (S)—N,N,3-Trimethyl-4-(3-methyl-4-((1-methyl-4-(4-(methylamino)-2-oxopyridin-1 (2H)-yl)-1H-pyrrolo[2,3-b]pyridin-2-yl)methyl)piperazin-1-yl)benzamide] | 53.6 nM | 18.9 nM | –
CNc1ccn(-c2ccnc3c2cc(CN2CCN(c4ccc(C(=O)N(C)C)cc4C)C[C@H]2C)n3C)c(=O)c1 [Example 1m19, (R)—N,N,3-Trimethyl-4-(3-methyl-4-((1-methyl-4-(4-(methylamino)-2-oxopyridin-1 (2H)-yl)-1H-pyrrolo[2,3-b]pyridin-2-yl)methyl)piperazin-1-yl)benzamide] | 122 nM | 23.5 nM | –
CNc1ccn(-c2ccnc3c2cc(CN2CC=C(c4ccc(C(=O)N(C)C)cc4OC)CC2)n3C)c(=O)c1 [Example 1m54, 3-Methoxy-N,N-dimethyl-4-(1-((1-methyl-4-(4-(methylamino)-2-oxopyridin-1 (2H)-yl)-1H-pyrrolo[2,3-b]pyridin-2-yl)methyl)-1,2,3,6-tetrahydropyridin-4-yl)benzamide] | 190 nM | 18.5 nM | –
CNc1ccn(-c2ccnc3c2cc(CN2CC=C(c4ccc(C(=O)N(C)C)cc4C(F)(F)F)CC2)n3C)c(=O)c1 [Example 1m59, N,N-Dimethyl-4-(1-((1-methyl-4-(4-(methylamino)-2-oxopyridin-1 (2H)-yl)-1H-pyrrolo[2,3-b]pyridin-2-yl)methyl)-1,2,3,6-tetrahydropyridin-4-yl)-3-(trifluoromethyl)benzamide] | 96.1 nM | 14.3 nM | –
CNc1ccn(-c2ccnc3c2cc(CN2CC=C(c4ccc(C(=O)N(C)C)cc4Cl)CC2)n3C)c(=O)c1 [Example 1m64, 3-Chloro-N,N-dimethyl-4-[1-[[1-methyl-4-[4-(methylamino)-2-oxo-1-pyridyl]pyrrolo[2,3-b]pyridin-2-yl]methyl]-3,6-dihydro-2H-pyridin-4-yl]benzamide] | 170 nM | 12 nM | –
CNc1ccn(-c2ccnc3c2cc(CN2CC=C(c4ncc(C(=O)N(C)C)cc4F)CC2)n3C)c(=O)c1 [Example 1m67, 5-Fluoro-N,N-dimethyl-6-[1-[[1-methyl-4-[4-(methylamino)-2-oxo-1-pyridyl]pyrrolo[2,3-b]pyridin-2-yl]methyl]-3,6-dihydro-2H-pyridin-4-yl]pyridine-3-carboxamide] | 80.1 nM | 33.4 nM | –
